In patent EP3130339A1, “A COMPOUND FOR USE IN THE TREATMENT OF COMORBID ANXIETY DISORDER AND DEPRESSION DISORDER” (Aché Laboratórios Farmacêuticos S.A., priority 2015, dated 2017):

Key:
Format in all cases: in vivo
mice (RJ:NMRI, males) = assay: Bright/dark box test (clear/dark transition test); conditions: 30 minutes before the test; for Time spent in the clear compartment (seconds) (mean ± mean standard error): three-minute test
Procedure: This model, also known as clear/dark transition test, is characterized as a model of conflict, based on the natural tendency to explore new environments versus avoidance of doing so, due to the potential possibility of the presence of aversive stimuli. It is an animal model based on independent behavior of conditioning, therefore, there is no need of learning. In rodents, this model is grounded in their natural aversion to excessively clear environments. This aversion is measured from the ansiogenic component expressed by lower exposure of the animal to the clear compartment.
The method employed followed the procedure described by Crawley and Goodwin (Pharmacol. Biochem. Behav. 1981, 15, 695-699).
The animals were placed on the clear field of a box comprising two compartments, one being illuminate and open (25 x 27 x 27 cm) and the other being dark and close (20 x 27 x 27 cm). Data on the length of stay in each compartment were collected over the three-minute test.
This test aimed at obtaining a comparison profile of response of Compound (A) (3-(2-(-4-(2-methoxyphenyl)piperazin-1-yl)ethyl)quinazolin-4(3H)-one and Compound (B) 3-(2-(4-(2-cyanophenyl)piperazin-1-yl)ethyl)quinazolin-4(3H)-one with known compounds that act by different mechanisms. The comparative compounds were alprazolam (benzodiazepine), paroxetine (ISRS-type antidepressant), venlafaxine (IRSN-type antidepressant) and agomelatine (antidepressant that acts on melatonin and serotonin 5-HT2C receptor). The following doses were employed in this study: Table 1: Tested compounds, concentrations and route of administration.
In this blind study, ten mice (RJ:NMRI, males) were employed per group. Clobazam (12 mg/Kg, i.p. route) was administered under the same study conditions as the reference compound. All compounds were administered 30 minutes before the test.
The test data of the response of substances were analyzed comparing the groups treated with the control vehicle using one-way ANOVA followed by post-hoc analysis of Dunnett's test. The data of the reference substance obtained were analyzed using unpaired Student's t test.

Mice [1] = assay: Non-precipitated withdrawal test; conditions: mouse, in vivo, po
Text: This test aims at assessing how the sudden cessation of the administration of a medicine can be associated with the occurrence of withdrawal identifiable symptoms. The types of symptoms examined are feed changes, weight gain, body temperature and the occurrence of one or behavioral symptoms and others, such as tremor, teeth chattering, wet dog body-shaking, diarrhea or piloerection. The triggering of these signs is a first sign that the substance induces dependence after repeated administration.
The method employed followed the procedure described by Goudie and Leathley (Psychopharmacology 1991, 103: 529-537).
Two mice per cage received two administrations per day (approximately 10:00 hours and 16:00 hours) of the test substance continuously during 19 days (day 1 to day 19), with the last administration occurring next to 10:00 hours of the 20th day. Control animals received the same number of administrations of vehicle. […] During the discontinuation phase, all animals received administration of vehicle once a day.
Additionally to the observations made after discontinuing the medicines, the same measures were taken at day 1 and day 10 of treatment, in addition to the 3 last days (days 18 to 20) immediately prior to administration of the dose in the morning to assess the effects of medicines before discontinuation. After discontinuation, the first observation was performed 24 hours after the last administration and, from then on, every 24 hours (days 21 to 28).
For daily measurements, the animals were evaluated with respect to behavioral changes during 5 minutes (two animals simultaneously observed). Then, their body weights and rectal temperatures were measured. Then, they received the proper treatment and were returned to their cages.
The leftover food in their supporters was weighed immediately after all animals return to their cages (only in the mornings), and food consumption in the previous 24 hours was determined.
The body weights, feed consumption and rectal temperatures were also measured 24 hours before the first administration, as reference values. The treated groups were homogenized with regard to body weights on the day preceding the first administration of the tested substances.
Compound (A) (3-(2-(-4-(2-methoxyphenyl)piperazin-1-yl)ethyl)quinazolin-4 (3H)-one) was evaluated in 3 doses (3, 10 and 30 mg/kg) administered orally (p.o.) and compared to the vehicle (control group).
Chlordiazepoxide (64 mg/kg, p.o.) was administered under the same experimental conditions, and was employed as reference substance in the test.
Paroxetine (15 and 30 mg/kg p.o.) was administered under the same experimental conditions and was used as comparative substance.
The test was blinded. Data were analyzed by comparing substances with their control vehicles employing one-way ANOVA with the group as a factor followed by post-hoc Dunnett tests. Data with the reference substance were analyzed using unpaired Student's t test.

Mice [2] = assay: Sphere hiding test; conditions: 1.0 mg/kg i.p.
Procedure: This test is based on the natural aversive behavior to glass and marble of rodents, where the presence of these objects triggers the action of burying (hiding). In this test, there are potential behavioral changes of medicines that may promote an ansiogenic or anxiolytic profile. This is determined by the increase or decrease of the behavior of hiding glass spheres ("marbles") that are randomly distributed on the surface of a box lined with sawdust. The increase of the number of covered balls is an indicative of anxiety, since it is supposed to represent a foreign agent to the animal, whose presence may pose threat. The administration of anxiolytics medicines decreases the number of spheres buried in non-sedative doses.
The method employed followed the procedure described by Broekkamp et al. (Eur. J. Pharmacol., 1986, 126, 223-229).
Mice were individually placed in transparent plastic cages (33 x 21 x 18 cm), with the floor covered by a 5 cm layer of sawdust and 25 glass spheres grouped in the center of the cage. The cage was covered with a perforated plastic cover. Each test cage, along with the glass spheres, were previously impregnated with "mouse odor", and a group of 10 mice was left inside for 15 minutes.
The number of glass spheres covered with sawdust (2/3 or more of the surface) was counted at the end of the 30 minutes of the test.
Each study group consisted of 12 mice. The test was partially blind (substances tested versus vehicle of the tested substances).
This test aimed at obtaining a comparison profile of response of Compound (A) (3-(2-(-4-(2-methoxyphenyl)piperazin-1-yl) ethyl) quinazolin-4 (3H) -one and Compound (B) (3-(2-(4-(2-cyanophenyl)piperazin-1-yl)ethyl)quinazolin-4(3H)-one) with known compounds that act by different mechanisms. The comparative compounds used were alprazolam (benzodiazepine) and paroxetine (ISRS-type antidepressant). These compounds were tested in the following doses: Table 3: Compounds tested, concentrations employed and route of administration.
Fluoxetine (ISRI antidepressant) was used as the positive control substance in the test, and was administered at 32 mg/kg (i.p.).
Quantitative data for the tested substances (number of glass spheres coated with sawdust) were evaluated by comparison with the treated groups using one-way ANOVA followed by planned comparisons against the appropriate vehicles. Data with fluoxetine were compared to the vehicle control using unpaired Student's t test.

SMILES: Fc1ccc([C@@H]2CCNC[C@H]2COc2ccc3c(c2)OCO3)cc1 [Paroxetine, paroxetine]
- Time spent in the clear compartment compared to vehicle % (mice (RJ:NMRI, males); 4 mg/Kg i.p.): +15%
- Time spent in the clear compartment (seconds) (mean ± mean standard error) (mice (RJ:NMRI, males); 4 mg/Kg i.p.): 84.6 ± 7.4 s
- Time spent in the clear compartment compared to vehicle % (mice (RJ:NMRI, males); 8 mg/Kg i.p.): -6%
- Time spent in the clear compartment (seconds) (mean ± mean standard error) (mice (RJ:NMRI, males); 8 mg/Kg i.p.): 69.3 ± 5.9 s
- Time spent in the clear compartment compared to vehicle % (mice (RJ:NMRI, males); 16 mg/Kg i.p.): -13%
- Time spent in the clear compartment (seconds) (mean ± mean standard error) (mice (RJ:NMRI, males); 16 mg/Kg i.p.): 63.8 ± 8.2 s
- withdrawal syndrome after an extended administration regimen (Mice [1]): induces mild withdrawal syndrome
- amount of food consumed (Mice [1]; 30 mg/kg): significant increase in the amount of food consumed
- body weight and food consumption (Mice [1]; 30 mg/kg): significantly induced weight loss and reduction of food consumption
- Number of Hidden Spheres Compared to vehicle control % (Mice [2]): -56%
- Number of Hidden Spheres (mean ± mean standard error) (Mice [2]; 25 glass spheres, counted at the end of 30 minutes): 8,4 ± 2,3
